Structures can show the parent of a compound that is named as a salt. Where two headings read alike, the source gives them in different places.
Legend:
[1] = test system: fibrin-induced microglia activation; test: Image-based assay of fibrin-induced microglia activation (HTS and dose response); assay type: cell-based, rat; conditions: for inhibition at 10 µM: Rattus norvegicus, Microglia, read-out: Fibrin % inhibition
[2] = test system: LPS-induced microglia activation; test: Image-based assay of LPS-induced microglia activation (HTS and dose response); assay type: cell-based, rat; conditions: for inhibition at 10 µM: Rattus norvegicus, Microglia, read-out: LPS % inhibition
[3] = test system: fibrin- and LPS-induced microglia activation; test: cells; assay type: cell-based, rat
primary rat microglia [4] = test: Cell toxicity (dead cells, size <150 μm2) in LPS assay
primary rat microglia [5] = test: Cell toxicity (dead cells, size <150 μm2) in coated fibrin (cFib) assay;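 further: share of dead cells sized under 150 µm2 at 10 µM in fibrin-stimulated microglia HTS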
[6] = primary microglia HTS, 10 μM, fibrin-stimulated, cell size >800 μm^2 as marker of activation
[7] = primary microglia HTS, 10 μM, LPS-stimulated, cell size >800 μm^2 as marker of activation
[8] = HTS of 1907 compounds, quadrant by fibrin and LPS inhibition
[9] = primary microglia HTS, 10 μM, LPS assay, cell size <150 μm^2 as marker of toxicity
[10] = primary microglia HTS, 10 μM, fibrin assay, cell size <150 μm^2 as marker of toxicity
[11] = primary microglia HTS, fibrin stimulation, increased cell size (>800 μm^2) as marker of activation
[12] = 48 h, primary microglia HTS, LPS stimulation, increased cell size (>800 μm^2) as marker of activation
[13] = quadrant by fibrin and LPS inhibition in HTS of 1907 compounds
[14] = primary microglia HTS, LPS stimulation, decreased size (<150 μm^2) as marker of toxicity
[15] = primary microglia HTS, fibrin stimulation, decreased size (<150 μm^2) as marker of toxicity
[16] = primary HTS, 10 μM, fibrin-stimulated primary microglia
[17] = primary HTS, 10 μM, LPS-stimulated primary microglia
[18] = primary HTS, 10 μM, LPS assay, dead cells size <150 μm2
[19] = primary HTS, 10 μM, fibrin assay, dead cells size <150 μm2

## CN1CC(=O)N2[C@H](c3ccc4c(c3)OCO4)c3[nH]c4ccccc4c3C[C@@H]2C1=O [Tadalafil]
[1]; [6]
  inhibition at 10 µM: -1%
[2]; [7]
  inhibition at 10 µM: 16%
[3]; [8]
  Quadrant (FIG. 5b): Q4
Primary rat microglia [4]; [9]
  LPS % cell toxicity: 0%
Primary rat microglia [5]; [10]
  Fibrin % cell toxicity: 1%

## Cc1ccc(Cl)c(Nc2ccccc2C(=O)O)c1Cl [Meclofenamic Acid]
[1]; [11]
  inhibition at 10 µM: 12%
[2]; [12]
  inhibition at 10 µM: 14%
[3]; [13]
  Quadrant (FIG. 5b): Q4
Primary rat microglia [4]; [14]
  LPS % cell toxicity: 0%
Primary rat microglia [5]; [15]
  Fibrin % cell toxicity: 1%

## CC[C@H](C)C(=O)O[C@H]1CCC=C2C=C[C@H](C)[C@H](CC[C@@H]3C[C@@H](O)CC(=O)O3)[C@H]21 [Compactin, Mevastatin]
[1]; [11]
  Fibrin % inhibition: 105%
[2]; primary microglia HTS, LPS stimulation, increased cell size (>800 μm^2) as marker of activation
  LPS % inhibition: 89%
[3]; [13]
  Quadrant (FIG. 5b): Q2
Primary rat microglia [4]; [14]
  LPS % cell toxicity: 2%
Primary rat microglia [5]; [15]
  Fibrin % cell toxicity: 3%

## CCn1nc(C(=O)O)c(=O)c2cc3c(cc21)OCO3 [Cinoxacin]
[1]; [11]
  inhibition at 10 µM: 117%
[2]; [12]
  inhibition at 10 µM: 115%
[3]; [13]
  Quadrant (FIG. 5b): Q2
Primary rat microglia [4]; [14]
  LPS % cell toxicity: 12%
Primary rat microglia [5]; [15]
  Fibrin % cell toxicity: 50%

## Cc1cc(O)c(C(=O)N[C@@H](C(=O)N[C@@H]2C(=O)N3C(C(=O)O)=C(CSc4nnnn4C)CS[C@H]23)c2ccc(O)cc2)cn1 [Cefpiramide]
[1]; [16]
  inhibition at 10 µM: 12%
[2]; [17]
  inhibition at 10 µM: 20%
[3]; primary HTS, 10 μM
  Quadrant (FIG. 5b): Q4
Primary rat microglia [4]; [18]
  LPS % cell toxicity: 0%
Primary rat microglia [5]; [19]
  Fibrin % cell toxicity: 1%

## COC(=O)C(N)CS (stereo not drawn) [Mecysteine Hydrochloride]
[1]; [11]
  inhibition at 10 µM: 20%
[2]; [12]
  inhibition at 10 µM: 22%
[3]; [13]
  Quadrant (FIG. 5b): Q4
Primary rat microglia [4]; [14]
  LPS % cell toxicity: 0%
Primary rat microglia [5]; [15]
  Fibrin % cell toxicity: 1%

## CC1=C(C(=O)O)N2C(=O)[C@@H](NC(=O)[C@H](N)c3ccc(O)cc3)[C@H]2SC1 [Cefadroxil]
[1]; [16]
  inhibition at 10 µM: 1%
[2]; [17]
  inhibition at 10 µM: 3%
[3]; primary HTS, 10 μM
  Quadrant (FIG. 5b): Q4
Primary rat microglia [4]; [18]
  LPS % cell toxicity: 0%
Primary rat microglia [5]; [19]
  Fibrin % cell toxicity: 0%

## CC(=O)OC(C)C[N+](C)(C)C (stereo not drawn) [Methacholine]
[1]; [11]
  inhibition at 10 µM: 2%
[2]; [12]
  inhibition at 10 µM: 9%
[3]; [13]
  Quadrant (FIG. 5b): Q4
Primary rat microglia [4]; [14]
  LPS % cell toxicity: 0%
Primary rat microglia [5]; [15]
  Fibrin % cell toxicity: 1%

## CC(C)CCCC(C)NC(C)C (stereo not drawn) [Iproheptine]
[1]; primary microglia HTS, fibrin stimulation, activation = cell size >800 μm2
  inhibition at 10 µM: -34%
[2]; 48 h, primary microglia HTS, LPS stimulation, activation = cell size >800 μm2
  inhibition at 10 µM: 11%
[3]; [13]
  Quadrant (FIG. 5b): Q4
Primary rat microglia [4]; primary microglia HTS, LPS stimulation, toxicity = cell size <150 μm2
  LPS % cell toxicity: 0%
Primary rat microglia [5]; primary microglia HTS, fibrin stimulation, toxicity = cell size <150 μm2
  Fibrin % cell toxicity: 1%

## S=C1SCN(Cc2ccccc2)CN1Cc1ccccc1 [Sulbentine]
[1]; [6]
  inhibition at 10 µM: 48%
[2]; [7]
  inhibition at 10 µM: 13%
[3]; [8]
  Quadrant (FIG. 5b): Q4
Primary rat microglia [4]; [9]
  LPS % cell toxicity: 0%
Primary rat microglia [5]; [10]
  Fibrin % cell toxicity: 1%

## COc1cc(NS(=O)(=O)c2ccc(N)cc2)nc(OC)n1 [Sulfadimethoxine]
[1]; [6]
  inhibition at 10 µM: 42%
[2]; [7]
  inhibition at 10 µM: 13%
[3]; [8]
  Quadrant (FIG. 5b): Q4
Primary rat microglia [4]; [9]
  LPS % cell toxicity: 0%
Primary rat microglia [5]; [10]
  Fibrin % cell toxicity: 1%

## O=P(O)(O)C(Cl)(Cl)P(=O)(O)O [Clodronate]
[1]; [16]
  inhibition at 10 µM: -15%
[2]; [17]
  inhibition at 10 µM: 1%
[3]; primary HTS, 10 μM
  Quadrant (FIG. 5b): Q4
Primary rat microglia [4]; [18]
  LPS % cell toxicity: 0%
Primary rat microglia [5]; [19]
  Fibrin % cell toxicity: 1%

## O=S(=O)(O)CCS [Mesna]
[1]; [11]
  inhibition at 10 µM: 18%
[2]; [12]
  inhibition at 10 µM: 5%
[3]; [13]
  Quadrant (FIG. 5b): Q4
Primary rat microglia [4]; [14]
  LPS % cell toxicity: 0%
Primary rat microglia [5]; [15]
  Fibrin % cell toxicity: 1%

## CC[N+](C)(CC)CCOC(=O)C(O)(c1ccccc1)C1CCCCC1 (stereo not drawn) [Oxyphenonium]
[1]; [11]
  inhibition at 10 µM: -14%
[2]; [12]
  inhibition at 10 µM: 30%
[3]; [13]
  Quadrant (FIG. 5b): Q4
Primary rat microglia [4]; [14]
  LPS % cell toxicity: 1%
Primary rat microglia [5]; [15]
  Fibrin % cell toxicity: 1%

## Nc1nc(/C(=C/CC(=O)O)C(=O)N[C@@H]2C(=O)N3C(C(=O)O)=CCS[C@H]23)cs1 [Ceftibuten]
[1]; [16]
  inhibition at 10 µM: -7%
[2]; [17]
  inhibition at 10 µM: 12%
[3]; primary HTS, 10 μM
  Quadrant (FIG. 5b): Q4
Primary rat microglia [4]; [18]
  LPS % cell toxicity: 0%
Primary rat microglia [5]; [19]
  Fibrin % cell toxicity: 1%

Reference: patent publication US20210330611A1, “THERAPY FOR NEUROLOGICAL DISEASES/DISORDERS” (priority 2020, published 2021)
